Results reported in patent publication US5190741A, “Agents for diagnosing and treating melanomas, aromatic halogenated derivatives usable as such agents and their preparation” (Institut National de la Sante et de la Recherche Medicale …, priority 1989, dated 1993).
Where two headings read alike, the source gives them in different places.

Assays:
B16 murine melanoma = assay: Autoradiograms, C57 BL6 mice bearing B16; type: in vivo, mouse
Experimental: The autoradiograms are carried out in mice bearing grafted melanomas:
a. C57 BL6 bearing the B16 murine melanoma.
The animals bearing grafted tumors receive the labelled compounds in the form of the hydrochloride in saline solution (3.7 to 5×10^5 Bq/animal) in a caudal vein. At different time intervals after the administration of the compounds (from 15 minutes to 24 hours) the mice are anesthetized with ether and plunged into liquid nitrogen.
30 μm sections, parallel to a sagittal plane, are prepared in a freezing microtome (TS 260, SLEE) according to the protocol described by Ullberg.

[1] = Tissue distribution in C57 BL6 mice bearing B16; type: in vivo, mouse; settings: mouse, iv, 3 umol/animal
Experimental: The study of the tissue distribution of the ^125 I labelled compounds was performed in mice bearing grafted melanomas (cf. autoradiograms above). […] The animals are sacrificed at different time intervals of 1 to 24 hours after the injection. The blood is collected and the principal organs are excised. Aliquots are weighed and the radioactivity of the samples is measured in a […] 1191 counter (analytic tracer). The counting yield for iodine 125 is 60%. The results are expressed: as a percentage of the injected dose bound per g of tissue (% ID/g); in the form of the ratios [formula] This ratio reflects more precisely the selectivity of a molecule for an organ (tables 2, 4, 6, 8, 10 and 12).

[2] = intestine, read-out: intestine % ID/g
[3] = kidney, read-out: kidney % ID/g
[4] = muscle, read-out: muscle % ID/g

Compound: CCN(CC)CCNC(=O)c1ccc(I)cc1 [Derivative A, N-(2-diethylaminoethyl) 4-iodo benzamide]
- darkening of the film at the tumor (B16 murine melanoma; 1 to 4 h after i.v.): considerable and inhomogeneous darkening of the film
- tumor visibility on autoradiogram (B16 murine melanoma; 24 h after i.v.): still visible
- tissue uptake at 1 h ([1]; blood, read-out: blood % ID/g): 1.04 %ID/g
- tissue uptake at 2 h ([1]; blood, read-out: blood % ID/g): 0.74 %ID/g
- tissue uptake at 4 h ([1]; blood, read-out: blood % ID/g): 0.54 %ID/g
- tissue uptake at 6 h ([1]; blood, 6 h, read-out: blood % ID/g): 0.21 %ID/g
- tissue uptake at 24 h ([1]; blood, read-out: blood % ID/g): 0.022 %ID/g
- tissue uptake at 8 h ([1]; blood, read-out: blood % ID/g): 0.34 %ID/g
- tissue uptake at 12 h ([1]; blood, read-out: blood % ID/g): 0.09 %ID/g
- tissue uptake at 1 h ([1]; brain, read-out: brain % ID/g): 2.67 %ID/g
- tissue uptake at 2 h ([1]; brain, read-out: brain % ID/g): 1.4 %ID/g
- tissue uptake at 4 h ([1]; brain, read-out: brain % ID/g): 0.7 %ID/g
- tissue uptake at 6 h ([1]; brain, 6 h, read-out: brain % ID/g): 0.32 %ID/g
- tissue uptake at 24 h ([1]; brain, read-out: brain % ID/g): 0.005 %ID/g
- tissue uptake at 8 h ([1]; brain, read-out: brain % ID/g): 0.18 %ID/g
- tissue uptake at 12 h ([1]; brain, read-out: brain % ID/g): 0.04 %ID/g
- tissue uptake at 1 h ([1]; eye, read-out: eye % ID/g): 13.6 %ID/g
- tissue uptake at 2 h ([1]; eye, read-out: eye % ID/g): 13 %ID/g
- tissue uptake at 4 h ([1]; eye, read-out: eye % ID/g): 12.4 %ID/g
- tissue uptake at 6 h ([1]; eye, 6 h, read-out: eye % ID/g): 12.1 %ID/g
- tissue uptake at 24 h ([1]; eye, read-out: eye % ID/g): 6.65 %ID/g
- tissue uptake at 8 h ([1]; eye, read-out: eye % ID/g): 8.07 %ID/g
- tissue uptake at 12 h ([1]; eye, read-out: eye % ID/g): 8.49 %ID/g
- tissue uptake at 1 h [1, 2]: 5.22 %ID/g
- tissue uptake at 2 h [1, 2]: 3.94 %ID/g
- tissue uptake at 4 h [1, 2]: 2.8 %ID/g
- tissue uptake at 6 h ([1]; intestine, 6 h, read-out: intestine % ID/g): 0.75 %ID/g
- tissue uptake at 8 h [1, 2]: 0.71 %ID/g
- tissue uptake at 12 h [1, 2]: 0.14 %ID/g
- tissue uptake at 24 h [1, 2]: 0.02 %ID/g
- tissue uptake at 1 h [1, 3]: 8.56 %ID/g
- tissue uptake at 2 h [1, 3]: 5.93 %ID/g
- tissue uptake at 4 h [1, 3]: 3.67 %ID/g
- tissue uptake at 6 h ([1]; kidney, 6 h, read-out: kidney % ID/g): 1.1 %ID/g
- tissue uptake at 24 h [1, 3]: 0.07 %ID/g
- tissue uptake at 8 h [1, 3]: 0.84 %ID/g
- tissue uptake at 12 h [1, 3]: 0.19 %ID/g
- tissue uptake at 1 h ([1]; liver, read-out: liver % ID/g): 6.04 %ID/g
- tissue uptake at 2 h ([1]; liver, read-out: liver % ID/g): 4.02 %ID/g
- tissue uptake at 4 h ([1]; liver, read-out: liver % ID/g): 2.46 %ID/g
- tissue uptake at 6 h ([1]; liver, 6 h, read-out: liver % ID/g): 0.95 %ID/g
- tissue uptake at 24 h ([1]; liver, read-out: liver % ID/g): 0.16 %ID/g
- tissue uptake at 8 h ([1]; liver, read-out: liver % ID/g): 0.8 %ID/g
- tissue uptake at 12 h ([1]; liver, read-out: liver % ID/g): 0.25 %ID/g
- tissue uptake at 1 h ([1]; lung, read-out: lungs % ID/g): 11 %ID/g
- tissue uptake at 2 h ([1]; lung, read-out: lungs % ID/g): 6.12 %ID/g
- tissue uptake at 4 h ([1]; lung, read-out: lungs % ID/g): 4.29 %ID/g
- tissue uptake at 6 h ([1]; lung, 6 h, read-out: lungs % ID/g): 1.99 %ID/g
- tissue uptake at 8 h ([1]; lung, read-out: lungs % ID/g): 1.11 %ID/g
- tissue uptake at 12 h ([1]; lung, read-out: lungs % ID/g): 0.2 %ID/g
- tissue uptake at 24 h ([1]; lung, read-out: lungs % ID/g): 0.05 %ID/g
- tissue uptake at 6 h ([1]; lung, as from the 6th hour, mice bearing melanic melanomas, read-out: pulmonary binding): < 1 %ID/g
- tissue uptake at 1 h [1, 4]: 1.55 %ID/g
- tissue uptake at 2 h [1, 4]: 1.13 %ID/g
- tissue uptake at 4 h [1, 4]: 0.66 %ID/g
